These are literature values, as cited in patent publication US12036321B2, “Compositions and methods for treating or preventing multiple organ dysfunction syndrome” (VIVACELLE BIO, INC., priority 2020, dated 2024).

Like-named read-outs stand apart in the source and are kept apart here.

One series relates to human neutrophils. Particulars: Simpkins et al., Life Sci 1985.
Series [1] has as its system Nitric oxide synthase (NOS). Particulars: nitric oxide synthase inhibitor, Lopez et al., Crit. Care Med. 2004.
The conditions of series [2]: Battion et al., J Amer Oil Chem Soc 1968.

`C=CCN1CC[C@]23c4c5ccc(O)c4O[C@H]2C(=O)CC[C@]3(O)[C@H]1C5` [(+) naloxone]: the “concentration range that produces anti-inflammatory effect” value with human neutrophils was 10^−5-10^−4 M.

With `CN=C(N)NCCC[C@H](N)C(=O)O.Cl` [546C88], the “outcome of trial in patients with septic shock” value is “increased mortality and multiple organ failure” in series [1]; “increased mortality” in series [1] (listed as 54C88).

Turning to `O=O` [Oxygen], the “solubility of oxygen in lipid relative to water” value in series [2] is listed as 4.41 times.
